From US9637516B2, “Betulinic acid proline derivatives as HIV inhibitors” (HETERO RESEARCH FOUNDATION, priority 2012, dated 2017)

What was measured:
HIV-1 strain 92HT599 = assay: Antiviral activity: p24 estimation in MT2 cells infected with HIV-1 strain 92HT599; format: cell-based; conditions: for inhibition at 0.1 µM: Human immunodeficiency virus 1, 100 nM; for inhibition at 0.1 µM / inhibition at 1 µM: HIV-1 92HT599, p24, ~96 hours; for inhibition at 1 µM: Human immunodeficiency virus 1, 1000 nM; for IC50: Human immunodeficiency virus 1, HIV-1 92HT599, p24
Protocol: MT2 cells were infected with HIV-1 strain 92HT599 (10 TCID 50/30000 cells). The infected cells were plated at the concentration of ˜30 000 cells per well in 96 well plate. Test compound was added to the micro plate in defined format with the final concentration of DMSO (vehicle) is not more than 1%. Incubation was carried out in CO2 incubator for ˜96 hours for viral infection. At the end of incubation period an aliquot from each well was taken for p24 estimation. The quantitation of p24 is an index for antiviral activity of the compound. Percent inhibition was calculated with reference to control values (vehicle controls). p-24 estimation was carried out using Advance biosciences kit as per the procedure detailed by supplier.

in vitro = format: cell-based; conditions: human, Cytotoxicity % viability
Protocol: (§1) For cyto-toxicity assay the same amount of MT2 cells as in antiviral assay without virus was added to the 96 well plates. The cyto-toxicity was measured using MTT reagent in parallel with p24 estimation. The percent viability is calculated in comparison with vehicle control.

MT2 cells = assay: in vitro; format: cell-based; conditions: human, 1 µM
Protocol: as §1

[1] = Single dose oral pharmacokinetic study; format: in vivo, mice; conditions: mouse, plasma
Protocol: The test item was administered through oral route to animals (rat/mice) at 30 mg/kg dose in a suitable vehicle at 10 ml/kg dose volume. Blood samples (˜50 uL at each time point) were collected from retro-orbital plexus using K3 EDTA as anticoagulant in eppendorf tubes at defined time intervals under light ether anesthesia. The samples were centrifuged at 3500×g to separate plasma and stored at −80° C. until analysis.
Sample analysis: Test samples were analyzed using LC-MS-MS after developing fit-for-purpose method for each of test compound.

[2] = Mice oral PK @30 mg/kg (Table 3)
[3] = Mice oral PK @30 mg/kg (Table 4)

| SMILES | inhibition at 0.1 µM (HIV-1 strain 92HT599) [%] | inhibition at 1 µM (HIV-1 strain 92HT599) [%] | viability at 1 µM (in vitro) [%] | Cytotoxicity % viability (MT2 cells) [%] | IC50 (HIV-1 strain 92HT599) [nM] | AUC(0-t) [1, 2] [µg·h/mL] | Cmax [1, 2] [ng/mL] | Tmax [1, 2] [h] | AUC(0-inf) [1, 3] [µg·h/mL] | AUC(0-t) [1, 3] [µg·h/mL] | Cmax [1, 3] [ng/mL] | half-life [1, 3] [h] |
| --- | --- | --- | --- | --- | --- | --- | --- | --- | --- | --- | --- | --- |
| C=C(C)[C@@H]1CC[C@]2(C(=O)N3CCC[C@@H]3c3nc(-c4ccccc4)no3)CC[C@]3(C)[C@H](CC[C@@H]4[C@@]5(C)CC[C@H](OC(=O)CC(C)(C)CC(=O)O)C(C)(C)[C@@H]5CC[C@]43C)[C@@H]12 [Compound 2, 3,3-dimethyl-5-oxo-5-((1R,3aS,5aR,5bR,7aR,9S,11aR,11bR,13aR,13bR)-5a,5b,8,8,11a-pentamethyl-3a-((R)-2-(3-phenyl-1,2,4-oxadiazol-5-yl)pyrrolidine-1-carbonyl)-1-(prop-1-en-2-yl)icosahydro-1H-cyclopenta[a]chrysen-9-yloxy)pentanoic acid] | 30 | 90 | 90 | 92 |  |  |  |  |  |  |  |  |
| C=C(C)[C@@H]1CC[C@]2(C(=O)N3CCC[C@@H]3c3nc(-c4cccnc4)no3)CC[C@]3(C)[C@H](CC[C@@H]4[C@@]5(C)CC[C@H](OC(=O)CC(C)(C)C(=O)O)C(C)(C)[C@@H]5CC[C@]43C)[C@@H]12 [Compound 3, 2,2-dimethyl-4-oxo-4-((1R,3aS,5aR,5bR,7aR,9S,11aR,11bR,13aR,13bR)-5a,5b,8,8,11a-pentamethyl-1-(prop-1-en-2-yl)-3a-((R)-2-(3-(pyridin-3-yl)-1,2,4-oxadiazol-5-yl)pyrrolidine-1-carbonyl)icosahydro-1H-cyclopenta[a]chrysen-9-yloxy)butanoic acid] | 100 | 100 | 97 | 100 | 3.34 | 66.5 | 7430 | 1.75 |  |  |  |  |
| CC(C)(CC(=O)O[C@H]1CC[C@]2(C)[C@H]3CC[C@@H]4[C@H]5[C@H](C6(C)CC6)CC[C@]5(C(=O)N5CCC[C@@H]5c5nc(-c6ccccc6)no5)CC[C@@]4(C)[C@]3(C)CC[C@H]2C1(C)C)C(=O)O [Compound 5, 2,2-dimethyl-4-oxo-4-((1R,3aS,5aR,5bR,7aR,9S,11aR,11bR,13aR,13bR)-5a,5b,8,8,11a-pentamethyl-1-(1-methylcyclopropyl)-3a-((R)-2-(3-phenyl-1,2,4-oxadiazol-5-yl)pyrrolidine-1-carbonyl)icosahydro-1H-cyclopenta[a]chrysen-9-yloxy)butanoic acid] | 64 | 99 | 91 | 100 |  |  |  |  |  |  |  |  |
| C=C(C)[C@@H]1CC[C@]2(C(=O)N3CCC[C@H]3c3ncc(-c4ccccc4)[nH]3)CC[C@]3(C)[C@H](CC[C@@H]4[C@@]5(C)CC[C@H](OC(=O)CC(C)(C)C(=O)O)C(C)(C)[C@@H]5CC[C@]43C)[C@@H]12 [Compound 8, 2,2-dimethyl-4-oxo-4-((1R,3aS,5aR,5bR,7aR,9S,11aR,11bR,13aR,13bR)-5a,5b,8,8,11a-pentamethyl-3a-((S)-2-(5-phenyl-1H-imidazol-2-yl)pyrrolidine-1-carbonyl)-1-(prop-1-en-2-yl)icosahydro-1H-cyclopenta[a]chrysen-9-yloxy)butanoic acid] | 100 | 100 | 96 | 88 | 12.9 | 143 | 11100 | 3.75 |  |  |  |  |
| C=C(C)[C@@H]1CC[C@]2(C(=O)N3CCC[C@H]3c3ncc(-c4ccccc4)[nH]3)CC[C@]3(C)[C@H](CC[C@@H]4[C@@]5(C)CC[C@H](OC(=O)CC(C)(C)CC(=O)O)C(C)(C)[C@@H]5CC[C@]43C)[C@@H]12 [Compound 9, 3,3-dimethyl-5-oxo-5-((1R,3aS,5aR,5bR,7aR,9S,11aR,11bR,13aR,13bR)-5a,5b,8,8,11a-pentamethyl-3a-((S)-2-(5-phenyl-1H-imidazol-2-yl)pyrrolidine-1-carbonyl)-1-(prop-1-en-2-yl)icosahydro-1H-cyclopenta[a]chrysen-9-yloxy)pentanoic acid] | 81 | 98 | 100 | 99 |  | 58 | 5460 | 6 |  |  |  |  |
| C=C(C)[C@@H]1CC[C@]2(C(=O)N3CCC[C@H]3c3ncc(-c4cccnc4)[nH]3)CC[C@]3(C)[C@H](CC[C@@H]4[C@@]5(C)CC[C@H](OC(=O)CC(C)(C)C(=O)O)C(C)(C)[C@@H]5CC[C@]43C)[C@@H]12 [Compound 10, 2,2-dimethyl-4-oxo-4-((1R,3aS,5aR,5bR,7aR,9S,11aR,11bR,13aR,13bR)-5a,5b,8,8,11a-pentamethyl-1-(prop-1-en-2-yl)-3a-((S)-2-(5-(pyridin-3-yl)-1H-imidazol-2-yl)pyrrolidine-1-carbonyl)icosahydro-1H-cyclopenta[a]chrysen-9-yloxy)butanoic acid] | 100 | 100 | 82 | 81 | 0.8 | 40.5 | 5840 | 1.13 |  |  |  |  |
| CC(C)(CC(=O)O[C@H]1CC[C@]2(C)[C@H]3CC[C@@H]4[C@H]5[C@H](C6(C)CC6)CC[C@]5(C(=O)N5CCC[C@H]5c5ncc(-c6ccccc6)[nH]5)CC[C@@]4(C)[C@]3(C)CC[C@H]2C1(C)C)C(=O)O [Compound 12, 2,2-dimethyl-4-oxo-4-((1R,3aS,5aR,5bR,7aR,9S,11aR,11bR,13aR,13bR)-5a,5b,8,8,11a-pentamethyl-1-(1-methylcyclopropyl)-3a-((S)-2-(5-phenyl-1H-imidazol-2-yl)pyrrolidine-1-carbonyl)icosahydro-1H-cyclopenta[a]chrysen-9-yloxy)butanoic acid] | 100 | 100 | 85 |  | 4.59 | 69.3 | 7260 | 3 |  |  |  |  |
| C=C(C)[C@@H]1CC[C@]2(C(=O)N3CCC[C@H]3c3ncc(-c4ccc(F)cc4)[nH]3)CC[C@]3(C)[C@H](CC[C@@H]4[C@@]5(C)CC[C@H](OC(=O)C6CC(C(=O)O)C6(C)C)C(C)(C)[C@@H]5CC[C@]43C)[C@@H]12 (stereo partly drawn) [Compound 35, 3-((((1R,3aS,5aR,5bR,7aR,9S,11aR,11bR,13aR,13bR)-3a-((S)-2-(5-(4-fluorophenyl)-1H-imidazol-2-yl)pyrrolidine-1-carbonyl)-5a,5b,8,8,11a-pentamethyl-1-(prop-1-en-2-yl)icosahydro-1H-cyclopenta[a]chrysen-9-yl)oxy)carbonyl)-2,2-dimethylcyclobutane-1-carboxylic acid] |  |  |  |  | 74 |  |  |  | 655 | 410 | 16000 | 34.2 |
| CC(C)(CC(=O)O[C@H]1CC[C@]2(C)[C@H]3CC[C@@H]4[C@H]5[C@H](C6(C)CC6)CC[C@]5(C(=O)N5CCC[C@H]5c5ncc(-c6cccs6)[nH]5)CC[C@@]4(C)[C@]3(C)CC[C@H]2C1(C)C)C(=O)O [Compound 38] |  |  |  |  | 8.4 |  |  |  | 119 | 110 | 7000 | 12.3 |
| CC1(C)C(C(=O)O)CC1C(=O)O[C@H]1CC[C@]2(C)[C@H]3CC[C@@H]4[C@H]5[C@H](C6(C)CC6)CC[C@]5(C(=O)N5CCC[C@H]5c5ncc(-c6ccc(F)cc6)[nH]5)CC[C@@]4(C)[C@]3(C)CC[C@H]2C1(C)C (stereo partly drawn) [Compound 42, 3-((((1R,3aS,5aR,5bR,7aR,9S,11aR,11bR,13aR,13bR)-3a-((S)-2-(5-(4-fluorophenyl)-1H-imidazol-2-yl)pyrrolidine-1-carbonyl)-5a,5b,8,8,11a-pentamethyl-1-(1-methylcyclopropyl)icosahydro-1H-cyclopenta[a]chrysen-9-yl)oxy)carbonyl)-2,2-dimethylcyclobutane-1-carboxylic acid] |  |  |  |  | < 0.3 |  |  |  | 448 | 254 | 9300 | 37.3 |
| CC1(C)C(C(=O)O)CC1C(=O)O[C@H]1CC[C@]2(C)[C@H]3CC[C@@H]4[C@H]5[C@H](C6(C)CC6)CC[C@]5(C(=O)N5CCC[C@H]5c5ncc(-c6ccccc6)[nH]5)CC[C@@]4(C)[C@]3(C)CC[C@H]2C1(C)C (stereo partly drawn) [Compound 43, 2,2-dimethyl-3-((((1R,3aS,5aR,5bR,7aR,9S,11aR,11bR,13aR,13bR)-5a,5b,8,8,11a-pentamethyl-1-(1-methylcyclopropyl)-3a-((S)-2-(5-phenyl-1H-imidazol-2-yl)pyrrolidine-1-carbonyl)icosahydro-1H-cyclopenta[a]chrysen-9-yl)oxy)carbonyl)cyclobutane-1-carboxylic acid] |  |  |  |  | 4.4 |  |  |  | 776 | 294 | 13900 | 55.6 |
